# Reference: US7238659B2, “Reducing axon degeneration with proteasome inhibitors” (Children's Medical Center Corporation, priority 2003, dated 2007)
# Square brackets hold non-standard residues; d marks the D form. Peptide text beside a SMILES is read from it. * marks the point of attachment. Sta = CC(C)C[C@H](N)[C@@H](O)CC(=O)O; Isovaleryl = CC(C)CC(=O)*; Nle = CCCC[C@H](N)C(=O)O; Nva = CCC[C@H](N)C(=O)O; Cbz = O=C(OCc1ccccc1)*; CH2F = FC*
# Tests used:
# [1] = tested on: corticospinal tract (CST) after midthoracic spinal cord transection with human Schwann cell grafts; test: Corticospinal Tract (CST) Regeneration Assay; type: in vivo, adult nude rat; design: key: dramatically reduce (+++ or ++++) axonal degeneration; dramatically reduce (+++ or ++++) axonal degeneration; conditions: inhibitor in fibrin glue; thirty-five days after grafting
# Experimental: Corticospinal Tract (CST) Regeneration Assay. Proteasome inhibitors are assayed for their ability to improve corticospinal tract (CST) regeneration following thoracic spinal cord injury by promoting CST regeneration into human Schwann cell grafts in the methods of Guest et al. (1997, supra). […] Inhibitors are incorporated into a fibrin glue and placed in the same region. Anterograde tracing from the motor cortex using the dextran amine tracers, Fluororuby (FR) and biotinylated dextran amine (BDA), are performed. Thirty-five days after grafting, the CST response is evaluated qualitatively by looking for reduced degeneration of CST fibers in or beyond grafts and quantitatively by constructing camera lucida composites to determine the sprouting index (SI), the position of the maximum termination density (MTD) rostral to the GFAP-defined host/graft interface, and the longitudinal spread (LS) of bulbous end terminals. The latter two measures provide information about axonal die-back.
# [2] = tested on: axons of cultured neurons; test: Axon degeneration elicited by calcium ionophore A23187 or ionomycin; type: cell-based
# [3] = tested on: transected axons from cultured sympathetic neurons; test: Wallerian degeneration of transected axons in cultured sympathetic ganglia; type: cell-based, rat; design: development of the axonal beading appearance / disintegration of transected axons into debris: dose or concentration left out as unconfirmed; conditions: for protective effect on Wallerian degeneration: added to sympathetic cultures prior to axotomy, EGTA 2 mM; for time post-axotomy until degeneration is shown: untreated transected axons: early signs 8 hr post-axotomy
# Excerpt: Inhibiting the ubiquitin-proteasome pathway delays Wallerian degeneration. Wallerian degeneration in most transected mammalian nerve fibers is a complex sequence that entails degradation of the axon, changes in the ensheathing and glial cells, alterations in the blood-tissue barriers, and responses of macrophage-lineage cells (reviewed by Griffin et al., 1995). To study the underlying mechanisms involved in the axon degeneration process, we have used the degeneration of transected axons from cultured primary neurons as models (Buckmaster et al., 1995; George et al., 1995; Wang et al., 2001). In cultured sympathetic ganglia derived from postnatal day 3 (p3) rats, soma-deprived axons undergo a typical degenerative process (herein, George et al., 1995; Wang et al., 2001). The severed axons first appear normal for 6-10 hr, depending upon the duration of culturing prior to axotomy. For sympathetic ganglia that have been cultured for 5 days, the severed axons begin to develop such signs of early degeneration as focal swelling and beading approximately 8 hrs after the axons had been separated from their cell bodies. In most cases, the axons would be completely degenerated and detached after 12-16 hr post-axotomy. Similar degenerative processes were also observed in other types of cultured neurons, such as chicken dorsal root ganglion neurons and retinal ganglion cells.
# We examined whether UPS is involved in axotomy-triggered Wallerian degeneration by using specific pharmacological inhibitors. It is known that for UPS to degrade a specific substrate protein, the sequential action of three enzymes, including a ubiquitin activating enzyme (E1), a ubiquitin conjugating enzyme (E2), and a ubiquitin ligase (E3), is required to covalently link ubiquitin to the substrate. Poly-ubiquitinated proteins are then targeted for degradation by the 26S proteasome, which is composed of two 19S proteasome regulatory particles and a 20S core. Substrate ubiquitination may also be reversed by ubiquitin proteases (reviewed by Weissman, 2001). In spite of the existence of multiple E2 and E3 molecules, the final and common step in degrading polyubiquitinated protein substrates is through the 26S proteasome machinery. Consistent with previous evidence for the existence and functioning of the UPS in axons (Campbell and Holt, 2001, 2003), components of UPS machinery, such as subunit C2 of the proteasome 20S, were found in both intact and transected axons from sympathetic neurons. Thus, to perturb UPS activity we used two mechanistically different proteasome inhibitors, MG132, a peptide-based reversible proteasome inhibitor (Rock et al., 1994), and lactacystin, a […] irreversible proteasome inhibitor (Fenteany et al., 1995), both of which had been extensively used to inhibit UPS activity in many different cell types including cultured neurons (Campbell and Holt, 2001, 2003).
# 24 hr post-axotomy when most of the axon debris has detached from the culture surface in control cultures, proteasome inhibitor-treated explants still retained many axons with some degeneration signs, which remained up to 36 hr post-axotomy.
# 8 hr post-axotomy, approximately 90% of axons from control HSV-infected explants, and only about 40% of axons from HSV-UBP2-infected ones, developed a beading appearance. However, the protective effects of UBP2 overexpression were less robust than those of the proteasome inhibitors, presumably due to the low expression levels of UBP2.
# As previous studies have implicated calpains, a class of calcium-dependent proteases, in Wallerian degeneration (George et al., 1995; Finn et al., 2000), we also examined the contribution of calpain activity in our assays with specific calpain inhibitors such as ALLN (Finn et al., 2000). […] 16 hr after axotomy when most of the transected axons from control cultures degenerated into debris, there were still remaining axon fibers in ALLN-treated cultures.
# [4] = tested on: microtubules and neurofilaments of transected axons; test: Breakdown of axonal cytoskeleton (microtubules, neurofilaments) in transected axons, immunostaining and Western blotting; type: cell-based, rat
# Excerpt: Microtubule destabilization at the initiation stage of Wallerian degeneration in vitro. We next examined which cellular events might correlate with the involvement of UPS and calpains in Wallerian degeneration. We monitored the integrity of different subcellular organelles in the transected axons by both immunocytochemistry and membrane labeling. […] At the protein level, we observed a corresponding cleavage of the neurofilament subunits, neurofilament 160 (NF-160) and neurofilament 68 (NF68) as detected by Western blotting.
# Apart from these axonal markers, however, the earliest detectable change appears to occur in the microtubules of transected axons. […] After 12 hr post-axotomy, the stained signals of fragmented microtubule structures weakened gradually and were replaced by many spheroid bodies in severed axons. By 16 hr after axotomy, almost all of the detected signals were spheroid bodies along the tracts of original axons. Even 16 hrs after axotomy when the majority of the axonal NF160 and NF68 has been degraded, most of the tubulin proteins still remained intact and the protein level remained stable according to Western blotting. To provide additional biochemical evidence for such an axotomy-elicited microtubule destabilization in transected axons at early stages of Wallerian degeneration, we separated monomeric (soluble, S) and polymerized (pellet, P) tubulins from transected axons and measured the depolymerization ratio (S/[S+P]) at different time points.
# UPS and calpains mediate the breakdown of axonal cytoskeleton components. To explore the link between these cellular and molecular changes during Wallerian degeneration, we next examined whether proteasome inhibitors, calpain inhibitors, and EGTA affect neurofilaments and microtubules in transected axons. […] On the other hand, ALLN only delayed neurofilament degradation, but not the fragmentation of microtubules.
# [5] = tested on: NGF-deprived sympathetic neurons; test: Neurite degeneration in NGF-deprived sympathetic neurons; type: cell-based; conditions: 36 hr after NGF deprivation; for death of cell bodies after NGF deprivation: Hoechst 33258 nuclei staining
# Excerpt: Proteasome inhibitors also delay neurite degeneration in NGF-deprived sympathetic neurons. In addition to transected axons, axons from neurons that have been deprived of their physiological trophic factors may also undergo a Wallerian-like degeneration process (reviewed by Raff et al., 2002). If the distal part of an axon of a cultured sympathetic neuron is locally deprived of NGF, that part of the axon degenerates while the rest of the cell and axon survives (Campenot, 1982). Moreover, it has been shown that such an NGF deprivation-triggered axon degeneration is delayed in the sympathetic neurons from Wld^s mice (Deckwerth and Johnson, 1994). We thus decided to investigate whether UPS is also involved in NGF deprivation-triggered axon degeneration. Consistent with previous studies (for example, Deckwerth and Johnson, 1994), 36 hr after NGF deprivation, all of the cultured sympathetic neurons underwent a typical apoptosis program with death of cell bodies as detected by nuclei staining with Hoechst 33258 (a few normally stained nuclei are glial cells) and degeneration of axons as indicated by both morphological criteria and immunostaining.
# transected optic nerve = test: Wallerian degeneration of transected optic nerve in vivo (gelfoam at lesion site); design: species or system mice; conditions: gelfoam pre-soaked with 50 mM MG132; 3 days post-axotomy; immunostaining
# Excerpt: MG132 slows down Wallerian degeneration of transected optic nerve in vivo. To assess whether these observations from in vitro culture experiments hold true in vivo, we first performed immunostaining experiments to examine the alterations of microtubules and neurofilaments in transected optic nerves. […] In optic nerves 3 days after axotomy when an antibody against NF160 still detected many linear neurofilament fibers, the antibody against a neuron specific b-tubulin detected largely spheroid bodies, reminiscent of the microtubule changes observed in vitro 16 hr post-axotomy. […] To examine whether proteasome inhibitors would retard Wallerian degeneration in vivo, we applied gelfoams pre-soaked with vehicle (PBS) or MG132 to the lesion sites and examined the transected optic nerves 3 days post-axotomy by immunostaining. Our experimental procedures were adapted from Meyer et al. (1994). In brief, adult mice were anesthetized by an intraperitoneal injection of ketamine (100 mg/kg) and xylazine (20 mg/kg). An incision was then made in the conjunctiva above the left orbit. The optic nerve was exposed under an operating microscope, and its dura opened longitudinally. […] At determined days after nerve crush, the animals were given a lethal dose of anesthesia and perfused through the heart with cold saline plus heparin followed by 4% paraformaldehyde. […]
# [6] = tested on: axons of cultured neurons; test: Induction of axon degeneration by cytoskeleton-disrupting agent; type: cell-based
# Excerpt: Thus, among the three major polymer components of the axon cytoskeleton, microtubules play a particularly important role in maintaining the integrity of axons. Consistent is the observation of microtubule disruption as the earliest detectable change during the physiological process of axon pruning in Drosophila metamorphosis (Watts et al., 2003).
smiles,measurement,setting,value
"CC(C)C[C@H](NC(=O)[C@H](CC(C)C)NC(=O)[C@H](CC(C)C)NC(=O)OCc1ccccc1)B(O)O [MG-262, Z-Leu-Leu-Leu-B(OH)2]",Reduce Degeneration,[1],+++
O=C(O)CN(CCOCCOCCN(CC(=O)O)CC(=O)O)CC(=O)O [EGTA],axon degeneration elicited by calcium ionophore A23187 or ionomycin,[2],blocked
same,protective effect on Wallerian degeneration,[3],much stronger protective effect
same,degeneration of all examined subcellular markers (destabilization of microtubules and cleavage of neurofilaments),[4]; transected axons,profoundly retarded
"CCCC[C@@H](C=O)NC(=O)[C@H](CC(C)C)NC(=O)[C@H](CC(C)C)NC(C)=O [MG-101, Ac-Leu-Leu-Nle-CHO] (Ac-Leu-Leu-[Nle]-aldehyde)",development of the axonal beading appearance,[3],did not affect
same,disintegration of transected axons into debris,[3]; 16 hr after axotomy,slightly delayed
same,calpain-dependent degradation of neurofilaments NF160 and NF68,[4]; Western blotting,completely prevented
same,neurofilament degradation,[4]; transected axons,only delayed
same,Reduce Degeneration,[1],+++
"CC(C)C(O)C12NC(=O)C(C)(C)C1OC2=O (stereo not drawn) [α-Methylomuralide, α-Methyl clasto-Lactacystin β-Lactone]",Reduce Degeneration,[1],++++
"CCC[C@@H](C=O)NC(=O)[C@H](CC(C)C)NC(=O)[C@H](CC(C)C)NC(=O)OCc1ccccc1 [MG-115, Carbobenzoxy-L-leucyl-L-leucyl-L-norvalinal] (Cbz-Leu-Leu-[Nva]-aldehyde)",Reduce Degeneration,[1],++++
"CC(C)[C@H](O)[C@@]12NC(=O)[C@H](C)[C@@H]1OC2=O [PS-519, clasto-Lactacystin β-Lactone]",Reduce Degeneration,[1],++++
CC(C)CC(=O)N[C@H](C(=O)N[C@H](C(=O)N[C@@H](CC(C)C)[C@@H](O)CC(=O)N[C@@H](C)C(=O)N[C@@H](CC(C)C)[C@@H](O)CC(=O)O)C(C)C)C(C)C [pepstatin.A] (Isovaleryl-VV[Sta]A[Sta]-OH),protective effect on Wallerian degeneration,[3],did not result in any detectable protective effect
"CC(C)C[C@@H](C=O)NC(=O)[C@H](CC(C)C)NC(=O)[C@H](CC(C)C)NC(=O)OCc1ccccc1 [MG-132, Carbobenzoxy-L-leucyl-L-leucyl-L-leucinal] (Cbz-Leu-Leu-Leu-aldehyde)",time post-axotomy until degeneration is shown,[3],16 h
same,axon (neurite) degeneration after NGF deprivation,[5],the majority of the axons were still intact
same,death of cell bodies after NGF deprivation,[5],still showed clear apoptotic staining
same,"breakdown of microtubules, neurofilaments and axolemma in transected optic nerves",transected optic nerve,significantly slowed
same,degeneration of all examined subcellular markers (destabilization of microtubules and cleavage of neurofilaments),[4]; transected axons,profoundly retarded
same,Reduce Degeneration,[1],+++
COC(=O)C[C@H](NC(=O)[C@H](C)NC(=O)[C@@H](NC(=O)OCc1ccccc1)C(C)C)C(=O)CF [Z-VAD-fmk] (Cbz-Val-Ala-Asp(OMe)-CH2F),protective effect on Wallerian degeneration,[3],did not result in any detectable protective effect
same,axon (neurite) degeneration after NGF deprivation,[5],efficiently prevented
same,death of cell bodies after NGF deprivation,[5],efficiently prevented
C/C1=C/C(=O)O[C@@H]2C[C@@H](CC[C@H](C)/C=C\CC1)O[C@@](O)([C@@H]1CSC(=O)N1)C2 [latrunculin B],induction of axon degeneration,[6],failed to induce axon degeneration
CC(=O)N[C@@H](CSC(=O)[C@]1([C@@H](O)C(C)C)NC(=O)[C@H](C)[C@@H]1O)C(=O)O [Lactacystin],time post-axotomy until degeneration is shown,[3],16 h
same,degeneration of all examined subcellular markers (destabilization of microtubules and cleavage of neurofilaments),[4]; transected axons,profoundly retarded
same,Reduce Degeneration,[1],+++
"CC(C)C[C@H](NC(=O)[C@H](Cc1ccccc1)NC(=O)c1cnccn1)B(O)O [PS-341, bortezomib]",Reduce Degeneration,[1],++++
